Source: the METLIN SMRT retention time set (Domingo-Almenara et al. 2019)

assay: gradient 5% acetonitrile 3 min, to 50% in 2 min, to 85% in 15 min, held 3 min, 100 µL/min; details: column: Zorbax Extend-C18 2.1 x 50 mm; eluents: water / acetonitrile, 0.1% formic acid
In short: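 Standards, all pure, were combined into mixtures of ~100 molecules and run at 100 μL/min on a Zorbax Extend-C18 column (2.1 × 50 mm, 1.8 μm) with water and acetonitrile, each containing 0.1% formic acid. A coupled quadrupole time-of-flight mass spectrometer operated in positive and negative ionization mode. Retention time values come from computationally picked adduct peaks, each inspected manually.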

SMILES | RP-LC retention time
O=C1NC2(CCN(C(=O)Nc3ccc4c(c3)OCCO4)CC2)Oc2ccccc21 | 736 s
COc1cc(OC)cc(-c2nnc(Cc3nc(-c4ccc(F)cc4)no3)o2)c1 | 1040 s
CC(=O)N[C@@H]1CCNC[C@@H]1c1nc(-c2ccccc2)no1 | 568 s
CN(C)C(=O)c1ccc2c(c1)nnn2CCNC(=O)Nc1ccccc1Br | 675 s
CCOc1ccc(NC(=O)c2oc3ccc(Br)cc3c2C)c2cccnc12 | 815 s
Cn1nccc1-c1cccc(-c2noc(C3CCN(S(=O)(=O)c4ccc(Cl)cc4)CC3)n2)c1 | 1120 s
CNC(=O)C1CCCN(c2nc3ncn(CC(=O)N4CCc5ccccc5C4)c(=O)c3s2)C1 (centres undefined) | 666 s
COCc1c(C(=O)O)nnn1-c1ccc(OC)cc1 | 677 s
CCC(C(=O)N1CCN(C)CC1)n1c2ccccc2c2cnn(C)c(=O)c21 (centres undefined) | 627 s
CCN(C(=O)Cn1nc(C(=O)N2CCCCC2)c2ccccc21)c1ccccc1 | 944 s
COc1cccc(-n2c(=O)c3sccc3n(Cc3nc(-c4ccc(F)cc4)no3)c2=O)c1 | 952 s
CSc1ccc(NC(=O)c2c(C)sc3ncnc(N4CCCC(C)C4)c23)cc1 (centres undefined) | 1250 s
COc1ccc(N2CCN(S(=O)(=O)c3cc(-c4csc(C)n4)ccc3C)CC2)cc1 | 1130 s
Cc1cccc2c(C(=O)NC3CC3)cc(N(C)C)nc12 | 588 s
Cc1nn2c(CNC(=O)c3cc(F)cc(F)c3)c(C)nc2s1 | 651 s
Cc1ccc(C)c(NC(=O)C2CCC(=O)N2S(=O)(=O)c2ccc(C)c(C)c2)c1 (centres undefined) | 962 s
c1cc2c(cc1OCc1cn(CC3CCCNC3)nn1)CCC2 (centres undefined) | 587 s
CC1CCN(c2cc(-n3cnc(C(=O)N4CCC(N5CCCCC5)CC4)c3)ncn2)CC1 | 662 s
COc1cccc(-c2nc(C3CCN(S(=O)(=O)c4ccccc4)CC3)no2)c1 | 1070 s
Cc1ccc(CNC(=O)Cn2c(=O)c(S(=O)(=O)c3ccccc3)cc3ccccc32)cc1 | 900 s
Cn1c(=O)c2cc(C(=O)NCc3ccc(Cl)cc3)sc2n(C)c1=O | 800 s
Cc1ccc(NC(=O)N2CCC(n3cnc4cccnc43)CC2)cc1F | 682 s
CC(C)N1CCn2cc(S(=O)(=O)Nc3cccc(Cl)c3)cc2C1=O | 805 s

SMILES | RP-LC retention time
COC[C@@H]1OCCN(S(=O)(=O)c2cn(C)cn2)[C@H]1c1ccccc1 | 686 s
CCc1nc2c(NC(=O)Nc3ccc4c(c3)CCC4)cccn2n1 | 957 s
O=C(c1cc2ccccc2[nH]1)N1CCN(c2cc(-c3cccnc3)[nH]n2)CC1 | 630 s
CCCc1nc(-c2ccnc(N3CCOCC3)c2)no1 | 749 s
O=C(Cc1ccccc1)NC(c1ccccc1)c1ccc2cccnc2c1O (centres undefined) | 822 s
Cc1ccc(CNC(=O)C2=CCN(Cc3ccccc3)CC2)o1 | 601 s
O=C(Cn1c(=O)oc2ccccc21)Nc1nc(-c2nc3ccccc3s2)cs1 | 866 s
CCCN(C(=O)CC)c1nc(-c2ccc(Br)cc2)cs1 | 1410 s
O=C(c1ccc(OCC2CCCN2C(=O)COc2ccc(F)cc2)cc1)N1CCOCC1 (centres undefined) | 778 s
Cc1ncsc1CN1CC(Cn2c(C)cnc2-c2ccncc2)C1 | 818 s
CCOC(=O)c1ccc(NC(=O)N2CCN(CC)c3ncccc32)cc1 | 640 s
Cc1ccc(-n2c(=O)c3c(cc(C)n3C)n(CC(=O)Nc3ccc(C)c(F)c3)c2=O)cc1 | 931 s
Cc1noc([C@@H]2CN(S(=O)(=O)c3ccc(Cl)s3)C[C@H]2C(N)=O)n1 | 732 s
CC(Oc1ccccc1)C(=O)N1CCC(c2cc(N)on2)CC1 (centres undefined) | 674 s
Cc1nn(-c2ccccc2)c2ccn(CC(=O)N3CCN(c4ccc(Cl)cc4)CC3)c(=O)c12 | 948 s
Cc1ccc(NC(=O)Cn2c(=O)n(-c3ccc(F)cc3)c(=O)c3c2cc(C)n3C)c(Cl)c1 | 946 s
COc1cccc(-c2cc(=O)n3c4ccccc4n(CC(=O)NCc4ccco4)c3n2)c1 | 864 s
COc1ccc(-c2cc(=O)c3c(O)cc(O)cc3o2)cc1OC | 770 s
CCOc1ccc(N2C=C(C#N)S(=O)(=O)c3ccc(Cl)cc32)cc1 | 1040 s
O=C(C1COc2ccccc2O1)N1CCN(c2cc(-c3cccs3)[nH]n2)CC1 (centres undefined) | 839 s
Cn1nc(N2CCC(NC(=O)C3CCCCC3)C2)ccc1=O (centres undefined) | 649 s
O=C(CN1C(=O)CSc2cccn2-c2ccccc21)NCCC1=CCCCC1 | 1030 s
O=C(c1ccc(N2CCCC2)nn1)N1CCN(c2ncccn2)CC1 | 548 s

SMILES | RP-LC retention time
Cc1cc(C)c2c(N3CCCC3)nc(C(=O)NCc3ccc(C)o3)nc2n1 | 577 s
O=C(Nc1ccc(Br)cc1F)C1CCCN(c2ccc(=O)n(-c3cccc(F)c3)n2)C1 (centres undefined) | 1020 s
Cc1ccccc1S(=O)(=O)N1CCC(N2CCN(Cc3ccccc3)C(=O)C2=O)CC1 | 826 s
Cc1ccc(NC(=O)Nc2ccc3nnc(C)n3c2)cc1C | 719 s
CC(C)NC(=O)c1ccc(OCC2CCCN2C(=O)c2ccc(C(F)(F)F)cc2)cc1 (centres undefined) | 914 s
Cc1ccc(C)c(Sc2ccc(N3CCC(C(=O)NCc4ccco4)CC3)nn2)c1 | 818 s
COCCN1C(=O)c2ccccc2C(C(=O)NCc2ccc(Cl)cc2)C12CCCC2 (centres undefined) | 925 s
O=C(Nc1ccc(F)cc1)Nc1cccc(-c2ccc(N3CCOCC3)nn2)c1 | 697 s
O=C(c1cc(-c2ccccc2)n[nH]1)N1CC(c2nc(C3CC3)no2)C1 | 711 s
CCOc1ccc(-c2csc(Cc3nc(-c4ccc5c(c4)OCO5)no3)n2)cc1 | 1200 s
Nc1cc(C(=O)Nc2ccccc2F)ccc1N1CC2CC(C1)c1cccc(=O)n1C2 (centres undefined) | 740 s
CCOc1ccc(C2CNC(=O)C2C(=O)OC)cc1OCC (centres undefined) | 694 s
COc1ccc(-c2cc(N3CCC(NC(=O)c4ccc(Br)o4)CC3)n[nH]2)cc1 | 735 s
CN1Cc2ccccc2-n2ccnc2C12CCN(C(=O)c1cccc(F)c1)CC2 | 614 s
CC(C)C(=O)N1CCc2cc(C(=O)NC3CC3)ccc21 | 698 s
CC(Oc1ccccc1)C(=O)N1CCCn2nc(-c3cccs3)cc2C1 (centres undefined) | 844 s
CCc1ccc(S(=O)(=O)c2cnc(N3CCC4(CC3)OCCO4)nc2N)cc1 | 944 s
COc1cccc(N2CCN(C(=O)c3cc(C4CC4)[nH]n3)CC2)c1 | 813 s
COc1ccc(-c2noc(C3CC(=O)N(c4ccc(C)cc4)C3)n2)c(OC)c1 (centres undefined) | 888 s
O=C(CSc1ccc(N2CCCC(C(=O)NC3CC3)C2)nn1)Nc1ccc(Br)cc1 (centres undefined) | 691 s
CC(=O)N1CCc2nn(C)c(=O)n2CC1 | 543 s
Cc1ccc(NC(=O)N2CCC(c3nc(C(=O)N4CCCC4)c(C)o3)CC2)cc1 | 759 s
CCOC(=O)c1c(C)c(CCC(=O)NCc2ccc3c(c2)OCO3)c(C)n1C | 865 s

SMILES | RP-LC retention time
Cc1ccnc(N2CCCC(C(=O)NCc3ccc(F)cc3Cl)C2)n1 (centres undefined) | 792 s
CCc1cc(-c2csc(S(=O)(=O)NCCCN3CCC(C)CC3)c2)on1 | 677 s
Cc1ccc(CN2CCN(CC(C)C(=O)NCc3cc(F)ccc3F)C(=O)C2=O)cc1 (centres undefined) | 765 s
CCOc1cccc(-c2noc(Cn3c(=O)n(-c4ccc(Cl)cc4)c(=O)c4sccc43)n2)c1 | 1130 s
O=C(NC1CCCCCC1)C1CCCN(c2nn3c(=O)c4c(nc3s2)CCCC4)C1 (centres undefined) | 838 s
Cc1ccc(Nc2c(-c3ccc(N4CCOCC4)cc3)nc3ncccn23)cc1C | 716 s
CN(C)c1cc(OC2CCN(C(=O)c3c[nH]c4ccccc34)C2)ncn1 (centres undefined) | 604 s
O=C(NC1CCN(c2nnc3ccccn23)CC1)c1cc2c(s1)CCCC2 | 742 s
COc1ccc(NC(=O)c2noc3c2CCC3)cc1OC | 811 s
CCC(CO)NCc1ccc(-c2cc(Cl)ccc2Cl)o1 (centres undefined) | 693 s
CC(C)c1noc(C2(NC(=O)c3cccc(F)c3)CCCCC2)n1 | 1040 s
O=C(c1c[nH]c2ccccc12)N1CCCCC1c1nc(C2CC2)no1 (centres undefined) | 866 s
Cc1ccc2cc(CCC(=O)NCCCN3CCCCC3)c(=O)[nH]c2c1 | 584 s
CSc1ccc(CNC(=O)c2ccc3ncnc(N4CCCC4)c3c2)cc1 | 669 s
COc1ccc(-n2nc3c(N4CCCC(C(=O)NCCC5=CCCCC5)C4)nnc(C)c3c2C)cc1 (centres undefined) | 814 s
CC1CCCN(C(=O)c2cn(-c3cc(-c4nc(C(C)C)no4)ccn3)cn2)C1 (centres undefined) | 955 s
CCc1nnc2cc(N3CCN(Cc4cn[nH]c4-c4ccccc4)CC3)cnn12 | 541 s
Cc1cc(-c2nnc(C3CCC3)o2)c(C)n1CC(=O)NCc1ccc(C(F)(F)F)cc1 | 941 s
CCN(CC)S(=O)(=O)c1ccc(F)c(-c2nnc(-c3ccccc3Br)o2)c1 | 1090 s
COc1ccccc1-c1nc(Cn2nnc(-c3nc(-c4ccc(C(F)(F)F)cc4)no3)c2C)c(C)o1 | 1240 s
